Assay results taken from US20220220128A1, “HETEROCYCLIC COMPOUNDS AS KINASE INHIBITORS, COMPOSITIONS COMPRISING THE HETEROCYCLIC COMPOUND, AND METHODS OF USE THEREOF” (JS Innopharm (Shanghai) Ltd, priority 2019, published 2022).

Columns and labels:
human RET kinase = biological target: T1, human RET kinase (Homo sapiens, UniProt P07949); assay: RET Kinase Assay (LanthaScreen TR-FRET enzymatic assay); format: biochemical; conditions: 7 nM RET, 23 μM ATP
T1 construct: purchased Carna 08-159
Experimental: Compounds were tested in a LanthaScreen™ time-resolved fluorescence energy transfer (TR-FRET) enzymatic assay from Invitrogen. The assay used human RET kinase (Carna 08-159). Test compounds were prepared and diluted in DMSO in 3-fold serial dilutions to 50× of the final testing concentrations. The compounds were then further diluted to 5× by the kinase reaction buffer (50 mM HEPES pH 7.5, 0.0015% Brij-35). The enzymatic reaction for compound testing was performed in a white 384-well polypropylene plate (Corning 3573) with a total reaction volume of 25 μl containing 7 nM RET, 3 μM peptide substrate FAM-P2 (GL Biochem 112394), and 23 μM ATP (Sigma A7699-1G). The assay started with loading RET diluted in kinase reaction buffer to wells, followed by addition of equal volume of 5× compounds for 15-min incubation at the room temperature for pre-treatment. The enzymatic reaction was initiated by addition of mixture of the substrate and ATP prepared in kinase reaction buffer. After incubation at 28° C. for one hour, 25 μl of stopper buffer (a mixture of 100 mM HEPES pH 7.5 buffer, 0.015% Brij-35, 50 mM EDTA and 0.2% of coating reagent 3 (Cliper Lifesciences)) and produce TR-FRET signals. After 30 minutes of incubation at room temperature, the plate was read in a Caliper with the following settings: Excitation 340 nm (30)/Emission1 495 nm (10)/Emission2 520 nm (25). The TR-FRET values were dimensionless numbers that were calculated as the ratio of the acceptor ([…]) signal to the donor (Terbium) signal. Percent of control was calculated as the percentage of compound-treated vs 1% DMSO vehicle-treated. The dose-response curves were generated and the IC50s were calculated by nonlinear sigmoid curve fitting using XLFit.

TT cells = assay: TT Cell Proliferation Assay (WST-8, 8 days); format: cell-based; conditions: Homo sapiens, TT, 192 h, growth inhibition in TT cells, read-out: TT Cellular Activity
Experimental: Compounds disclosed herein were tested for the inhibition of RET by a cancer cell proliferation assay commonly known as MTT assay. In this assay, a complete media was prepared by adding 10% fetal bovine serum to RPMI-1640 medium (Life technology). TT cells were added to each of 88 wells of a 96 well plate at a seeding density of 6,000 cells/well/90 μL. The cells were allowed to attach to the plate by incubating at 37° C. for 24 hours. The compound was dissolved in DMSO (SIGMA). A solution of test compound was prepared in complete media by serial dilution to obtain the following concentrations: 50 μM, 15 μM, 5 μM, 1.5 μM, 0.5 μM, 0.15 μM, 0.05 μM, 0.015 μM and 0.005 μM. The test compound solution (10 μL) was added to each of 80 cell-containing wells. The final concentrations of the compound were following: 5 μM, 1.5 μM, 0.5 μM, 0.15 μM, 0.05 μM, 0.015 μM, 0.005 μM, 0.0015 μM and 0.0005 μM. The final concentration of DMSO is 0.5%. To the 8 remaining cell-containing wells, only complete media (containing 0.5% DMSO) was added to form a control group in order to measure maximal proliferation. To the remaining 8 empty wells, complete media was added to for a vehicle control group in order to measure background. The plates were incubated at 37° C. for 8 days. 10 μL WST-8 solution (DOJINDO, Cell Counting KIT-8) was added to each well. The plates were further incubated at 37° C. for 5 hours, and then read for the absorbance using a microplate reader at 450 nm. The IC50 was calculated using GraphPad Prism.

human KDR kinase = biological target: T2, human KDR kinase (Homo sapiens, UniProt P35968); assay: KDR Kinase Assay (LanthaScreen TR-FRET enzymatic assay); format: biochemical; conditions: 1.2 nM KDR, 92 μM ATP
T2 construct: purchased Carna 08-191
Experimental: Compounds were tested in a LanthaScreen™ time-resolved fluorescence energy transfer (TR-FRET) enzymatic assay from Invitrogen. The assay used human KDR kinase (Carna 08-191). Test compounds were prepared and diluted in DMSO in 3-fold serial dilutions to 50× of the final testing concentrations. The compounds were then further diluted to 5× by the kinase reaction buffer (50 mM HEPES pH 7.5, 0.0015% Brij-35). The enzymatic reaction for compound testing was performed in a white 384-well polypropylene plate (Corning 3573) with a total reaction volume of 25 μl containing 1.2 nM KDR, 3 μM peptide substrate FAM-P22 (GL Biochem 112393), and 92 μM ATP (Sigma A7699-1G). The assay started with loading RET diluted in kinase reaction buffer to wells, followed by addition of equal volume of 5× compounds for 15-min incubation at the room temperature for pre-treatment. The enzymatic reaction was initiated by addition of mixture of the substrate and ATP prepared in kinase reaction buffer. After incubation at 28° C. for one hour, 25 μl of stopper buffer (a mixture of 100 mM HEPES pH 7.5 buffer, 0.015% Brij-35, 50 mM EDTA and 0.2% of coating reagent 3 (Cliper Lifesciences)) and produce TR-FRET signals. After 30 minutes of incubation at room temperature, the plate was read in a Caliper with the following settings: Excitation 340 nm (30)/Emission1 495 nm (10)/Emission2 520 nm (25). The TR-FRET values were dimensionless numbers that were calculated as the ratio of the acceptor ([…]) signal to the donor (Terbium) signal. Percent of control was calculated as the percentage of compound-treated vs 1% DMSO vehicle-treated. The dose-response curves were generated and the IC50s were calculated by nonlinear sigmoid curve fitting using XLFit.

T1 sequence (P07949 29-1114): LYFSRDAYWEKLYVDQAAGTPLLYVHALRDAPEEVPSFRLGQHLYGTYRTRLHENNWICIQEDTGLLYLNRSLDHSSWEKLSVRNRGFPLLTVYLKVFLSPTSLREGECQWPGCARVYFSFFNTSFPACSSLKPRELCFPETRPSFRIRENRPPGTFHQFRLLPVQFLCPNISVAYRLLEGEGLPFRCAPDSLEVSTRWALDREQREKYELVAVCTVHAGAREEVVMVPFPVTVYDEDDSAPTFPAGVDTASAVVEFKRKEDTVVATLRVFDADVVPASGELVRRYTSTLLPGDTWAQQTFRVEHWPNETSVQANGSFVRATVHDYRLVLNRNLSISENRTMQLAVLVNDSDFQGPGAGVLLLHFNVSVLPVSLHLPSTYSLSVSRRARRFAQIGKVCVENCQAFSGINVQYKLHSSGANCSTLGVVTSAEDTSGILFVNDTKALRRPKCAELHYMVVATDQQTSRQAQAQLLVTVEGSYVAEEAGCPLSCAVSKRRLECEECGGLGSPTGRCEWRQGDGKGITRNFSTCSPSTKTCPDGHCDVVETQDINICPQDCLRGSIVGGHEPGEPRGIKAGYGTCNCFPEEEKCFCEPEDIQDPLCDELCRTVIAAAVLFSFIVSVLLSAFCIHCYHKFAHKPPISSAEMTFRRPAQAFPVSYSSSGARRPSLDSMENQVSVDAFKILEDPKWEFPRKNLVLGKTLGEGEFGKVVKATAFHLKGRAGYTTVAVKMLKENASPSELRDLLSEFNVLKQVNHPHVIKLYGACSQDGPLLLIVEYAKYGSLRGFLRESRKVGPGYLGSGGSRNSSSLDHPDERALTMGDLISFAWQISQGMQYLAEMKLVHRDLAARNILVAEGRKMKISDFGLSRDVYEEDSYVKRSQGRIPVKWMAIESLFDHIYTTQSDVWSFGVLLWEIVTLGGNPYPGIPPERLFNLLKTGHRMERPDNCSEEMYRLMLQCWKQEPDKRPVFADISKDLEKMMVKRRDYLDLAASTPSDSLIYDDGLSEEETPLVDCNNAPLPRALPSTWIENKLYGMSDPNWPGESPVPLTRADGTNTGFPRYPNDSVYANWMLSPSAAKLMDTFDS
T2 sequence (P35968 20-1356): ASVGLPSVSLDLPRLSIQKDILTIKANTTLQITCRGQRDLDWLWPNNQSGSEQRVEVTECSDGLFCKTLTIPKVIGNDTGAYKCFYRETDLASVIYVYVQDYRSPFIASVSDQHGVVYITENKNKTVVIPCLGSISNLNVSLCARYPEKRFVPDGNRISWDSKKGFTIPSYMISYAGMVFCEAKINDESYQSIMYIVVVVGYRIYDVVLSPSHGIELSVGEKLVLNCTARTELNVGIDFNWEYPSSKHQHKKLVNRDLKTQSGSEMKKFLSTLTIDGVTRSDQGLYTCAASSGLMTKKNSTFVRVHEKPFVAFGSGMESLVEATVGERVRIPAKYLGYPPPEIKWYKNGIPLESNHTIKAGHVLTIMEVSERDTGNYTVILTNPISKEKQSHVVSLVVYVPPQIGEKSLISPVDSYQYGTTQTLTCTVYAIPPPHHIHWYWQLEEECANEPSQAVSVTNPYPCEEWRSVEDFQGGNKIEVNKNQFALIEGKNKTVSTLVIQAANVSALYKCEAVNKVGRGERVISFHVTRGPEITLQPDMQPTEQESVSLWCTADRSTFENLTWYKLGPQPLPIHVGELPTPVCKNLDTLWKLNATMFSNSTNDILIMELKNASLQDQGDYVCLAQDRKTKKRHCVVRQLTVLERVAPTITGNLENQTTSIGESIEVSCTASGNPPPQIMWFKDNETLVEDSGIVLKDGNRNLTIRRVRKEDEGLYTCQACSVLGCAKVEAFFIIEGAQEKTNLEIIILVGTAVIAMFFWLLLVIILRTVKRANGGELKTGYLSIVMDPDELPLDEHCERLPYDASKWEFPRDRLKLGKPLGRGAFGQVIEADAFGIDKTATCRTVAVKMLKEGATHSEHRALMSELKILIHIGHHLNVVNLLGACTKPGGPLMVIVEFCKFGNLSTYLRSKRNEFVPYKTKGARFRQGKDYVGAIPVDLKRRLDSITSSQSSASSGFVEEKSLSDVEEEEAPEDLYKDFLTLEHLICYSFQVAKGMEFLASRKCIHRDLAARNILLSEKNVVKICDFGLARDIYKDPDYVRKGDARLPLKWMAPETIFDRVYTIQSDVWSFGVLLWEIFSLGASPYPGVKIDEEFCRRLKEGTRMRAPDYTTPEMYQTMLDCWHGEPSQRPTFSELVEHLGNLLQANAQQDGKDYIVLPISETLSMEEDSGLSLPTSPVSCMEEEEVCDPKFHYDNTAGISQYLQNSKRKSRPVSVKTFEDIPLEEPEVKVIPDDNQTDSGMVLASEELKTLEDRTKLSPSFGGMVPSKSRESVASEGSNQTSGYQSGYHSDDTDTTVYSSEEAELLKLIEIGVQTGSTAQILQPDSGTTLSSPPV

Structure (SMILES) | IC50 (human RET kinase) | IC50 (TT cells) | IC50 (human KDR kinase)
CCOc1cc(-c2ccc(N3C[C@@H]4C[C@@](C)(NC(=O)c5ncc(F)cc5Cl)C[C@@H]4C3)nc2)c2c(C#N)cnn2c1 [Example 64, 3-chloro-N-((3aR,5s,6aS)-2-(5-(3-cyano-6-ethoxypyrazolo[1,5-a]pyridin-4-yl)pyridin-2-yl)-5-methyloctahydrocyclopenta[c]pyrrol-5-yl)-5-fluoropicolinamide] | ≤ 10 nM | 50 to 100 nM | 10 to 50 nM
CC(O)COc1cc(-c2ccc(N3C[C@@H]4[C@@H](CNC(=O)c5ncccc5Cl)[C@@H]4C3)nc2)c2c(C#N)cnn2c1 (stereo partly drawn) [Example 124, 3-chloro-N-(((1R,5S,6s)-3-(5-(3-cyano-6-(2-hydroxypropoxy)pyrazolo[1,5-a]pyridin-4-yl)pyridin-2-yl)-3-azabicyclo[3.1.0]hexan-6-yl)methyl)picolinamide] | ≤ 10 nM | 10 to 50 nM | > 100 nM
Cn1ccc(-c2cc(-c3ccc(N4C[C@@H]5C[C@@](C)(NC(=O)c6ncccc6F)C[C@@H]5C4)nc3)c3c(C#N)cnn3c2)n1 [Example 123, N-((3aR,5s,6aS)-2-(5-(3-cyano-6-(1-methyl-1H-pyrazol-3-yl)pyrazolo[1,5-a]pyridin-4-yl)pyridin-2-yl)-5-methyloctahydrocyclopenta[c]pyrrol-5-yl)-3-fluoropicolinamide] | ≤ 10 nM | ≤ 10 nM | 10 to 50 nM
CCOc1cc(-c2ccc(N3C[C@@H]4[C@H](C3)[C@H]4NC(=O)c3ncccc3Cl)nc2)c2c(C#N)cnn2c1 [Example 38, 3-chloro-N-((1R,5S,6s)-3-(5-(3-cyano-6-ethoxypyrazolo[1,5-a]pyridin-4-yl)pyridin-2-yl)-3-azabicyclo[3.1.0]hexan-6-yl)picolinamide] | – | > 100 nM | > 100 nM
CCOc1cc(-c2ccc(N3C[C@H]4C[C@@H](NC(=O)c5ncccc5Cl)C[C@H]4C3)nc2)c2c(C#N)cnn2c1 [Example 48, 3-chloro-N-((3aR,5r,6aS)-2-(5-(3-cyano-6-ethoxypyrazolo[1,5-a]pyridin-4-yl)pyridin-2-yl)octahydrocyclopenta[c]pyrrol-5-yl)picolinamide] | – | ≤ 10 nM | 10 to 50 nM
COc1ccc(NC(=O)[C@H]2[C@@H]3CN(c4ccc(-c5cc(OCC(C)(C)O)cn6ncc(C#N)c56)cn4)C[C@@H]32)cn1 [Example 175, (1R,5S,6r)-3-(5-(3-cyano-6-(2-hydroxy-2-methylpropoxy)pyrazolo[1,5-a]pyridin-4-yl)pyridin-2-yl)-N-(6-methoxypyridin-3-yl)-3-azabicyclo[3.1.0]hexane-6-carboxamide] | ≤ 10 nM | – | –
CCOc1cc(-c2ccc(N3C[C@@H]4[C@H](C3)[C@@H]4NC(=O)c3ncccc3Cl)nc2)c2c(C#N)cnn2c1 [Example 43, 3-chloro-N-((1R,5S,6r)-3-(5-(3-cyano-6-ethoxypyrazolo[1,5-a]pyridin-4-yl)pyridin-2-yl)-3-azabicyclo[3.1.0]hexan-6-yl)picolinamide] | – | > 100 nM | > 100 nM
COc1ccc(C(=O)N[C@]2(C)C[C@H]3CN(c4ccc(-c5cc(-c6ccn(C)n6)cn6ncc(C#N)c56)cn4)C[C@H]3C2)cn1 [Example 122, N-((3aR,5s,6aS)-2-(5-(3-cyano-6-(1-methyl-1H-pyrazol-3-yl)pyrazolo[1,5-a]pyridin-4-yl)pyridin-2-yl)-5-methyloctahydrocyclopenta[c]pyrrol-5-yl)-6-methoxynicotinamide] | ≤ 10 nM | – | 10 to 50 nM
CCOc1cc(-c2ccc(N3C[C@@H]4C[C@@](C)(NC(=O)c5ncccc5Cl)C[C@@H]4C3)nc2)c2c(C#N)cnn2c1 [Example 51, 3-chloro-N-((3aR,5s,6aS)-2-(5-(3-cyano-6-ethoxypyrazolo[1,5-a]pyridin-4-yl)pyridin-2-yl)-5-methyloctahydrocyclopenta[c]pyrrol-5-yl)picolinamide] | – | 10 to 50 nM | 10 to 50 nM
COc1ccc(NC(=O)C23CC4CC(C2)N(c2cnc(-c5cc(-c6cnn(C)c6)cn6ncc(C#N)c56)cn2)C(C4)C3)cn1 [Example 114, (1R,3S,5s,7s)-2-(5-(3-cyano-6-(1-methyl-1H-pyrazol-4-yl)pyrazolo[1,5-a]pyridin-4-yl)pyrazin-2-yl)-N-(6-methoxypyridin-3-yl)-2-azaadamantane-5-carboxamide] | ≤ 10 nM | – | –
CCOc1cc(-c2ccc(N3C4CC5CC3CC(C(=O)Nc3ccc(OC)nc3)(C5)C4)nc2)c2c(C#N)cnn2c1 [Example 134, (1R3S,5s,7s)-2-(5-(3-cyano-6-ethoxypyrazolo[1,5-a]pyridin-4-yl)pyridin-2-yl)-N-(6-methoxypyridin-3-yl)-2-azaadamantane-5-carboxamide] | ≤ 10 nM | – | –
CCOc1cc(-c2ccc(N3C[C@@H]4[C@@H](CNC(=O)c5ncccc5Cl)[C@@H]4C3)nc2)c2c(C#N)cnn2c1 [Example 94, 3-chloro-N-(((1R,5S,6s)-3-(5-(3-cyano-6-ethoxypyrazolo[1,5-a]pyridin-4-yl)pyridin-2-yl)-3-azabicyclo[3.1.0]hexan-6-yl)methyl)picolinamide] | – | 10 to 50 nM | 50 to 100 nM
CCOc1cc(-c2ccc(N3C[C@H]4C[C@H](NC(=O)c5ncccc5Cl)C[C@H]4C3)nc2)c2c(C#N)cnn2c1 [Example 49, 3-chloro-N-((3aR,5s,6aS)-2-(5-(3-cyano-6-ethoxypyrazolo[1,5-a]pyridin-4-yl)pyridin-2-yl)octahydrocyclopenta[c]pyrrol-5-yl)picolinamide] | – | 10 to 50 nM | 10 to 50 nM
Cn1cc(-c2cc(-c3ccc(N4C[C@@H]5[C@@H](CNC(=O)c6c(F)cccc6Cl)[C@@H]5C4)nc3)c3c(C#N)cnn3c2)cn1 [Example 187, 2-chloro-N-(((1R,5S,6s)-3-(5-(3-cyano-6-(1-methyl-1H-pyrazol-4-yl)pyrazolo[1,5-a]pyridin-4-yl)pyridin-2-yl)-3-azabicyclo[3.1.0]hexan-6-yl)methyl)-6-fluorobenzamide] | ≤ 10 nM | – | ≤ 10 nM
CC(=O)NC12CC3CC(C1)N(c1ccc(-c4cc(OCC(C)(C)O)cn5ncc(C#N)c45)cn1)C(C3)C2 [Example 130, N-((1R,3S,5s,7s)-2-(5-(3-cyano-6-(2-hydroxy-2-methylpropoxy)pyrazolo[1,5-a]pyridin-4-yl)pyridin-2-yl)-2-azaadamantan-5-yl)acetamide] | ≤ 10 nM | – | > 100 nM
